Data on 6 molecules can be found in patent US9138437B2, “Pyrimidine substituted purine compounds as kinase (S) inhibitors” (VERASTEM, INC., priority 2009, dated 2015).

Values after ≈ are worked out from the molar mass of the structure shown. Like-named read-outs stand apart in the source and are kept apart here.

A short description of data set [1]: in vitro. Conditions: human, pH 7.4; for half-life: microsomes.
Procedure: Verapamil, purchased from Sigma-Aldrich, is used as a reference standard in the assay. HLM are purchased from Xeno Tech (20 mg/mL in 250 mM sucrose solution). A 100 mM stock solution of potassium phosphate buffer is pre-prepared by combining 80 mL of 1M K2HPO4 and 20 mL of 1 M KH2PO4 in 900 mL of water (pH adjusted to 7.4 using diluted HCl) and stored at room temperature. K2HPO4.3H20 and KH2PO4 are obtained from Sigma Aldrich and the NADPH Regeneration System Solutions A and B from Gentest. The stop solution used to quench the reaction is a pre-prepared mixture of acetonitrile and DMSO (80:20) and is stored at 4° C. All solvents used are HPLC grade and the water used during the stock solution preparation and during LC-MS analysis is deionised using a Milli-Q system.
8 μL of the compound mix is then added to 72 μL of a pre-prepared incubation mix made up of water (2250 μL), 100 mM potassium phosphate buffer (2900 μL), NADPH Regeneration System Solution B (58 μL), NADPH Regeneration System Solution A (290 μL) and HLM (250 μL). The resulting reaction mixture (final compound concentration of 5 μM) is then incubated at 37° C. in a B. Braun Certomat H incubator after which a 50 μL aliquot is dispensed to a well on a separate plate well containing 100 μL of Stop solution. […] Each test compound is sampled multiple times and incubated for a series of time points (5, 15, 30, 45 and 60 min). Remaining compound concentration is determined by LC-MS (ABI Qtrap 3200) and comparison to a reference solution of known concentration. Stability is then expressed as a half-life in minutes (t½).
Data set [2] in a line: physchem. Conditions: pH 7, aqueous buffer, kinetic from dmso stock.
Procedure: (§1) Compound solubility is determined in a high-throughput kinetic solubility profiling method using a 96-well format. Compound solubility is assessed using a UV/Visible Microplate Spectrophotometer (Molecular Devices SpectraMax Plus384). Vorinostat (SAHA) and Nicardipine, purchased from Sigma, are used as reference standards.
(§2) The mixture is then shaken at 600 rpm for 1.5 h and allowed to stand at room temperature for 2 h. […] The resulting supernatant (80 μL) is transferred to the UV-analysis plate and diluted with DMSO (20 μL). The samples are quantified using calibration stocks of the respective compound made in phosphate buffer/DMSO (80:20).
A short description of data set [3]: High throughput solubility assay (kinetic, UV). Conditions: pH 7.
Procedure: as §1, §2

For orientation: half-life means the time needed for the level to fall by half in the phase considered. Low values mean fast loss, high ones slow loss. The solubility is the concentration that dissolves in the medium under given conditions. Lower therefore signals a poorly soluble substance. As to `CCC(C)n1cnc2c(-c3cnc(N)nc3)nc(N3CCOCC3)nc21` (stereo not shown) [Cmpd E], under “as drug candidate”, the “solubility, assessment in words” value is recorded as “low solubility”. In data set [1], this molecule registered a half-life of more than 60 min. This molecule had a solubility in data set [2] of 35 µM (≈ 12.4 µg/mL).

Consider `CCC(C)n1c(Br)nc2c(-c3cnc(N)nc3)nc(N3CCOCC3)nc21` (stereo not shown) [Cmpd A], for which the “solubility, assessment in words” value (as drug candidate) was “low solubility”. In addition, in data set [1], the half-life is more than 60 min. In data set [2], this molecule displayed a solubility of 44 µM (≈ 19.1 µg/mL).

With `CC(C)n1c(Br)nc2c(-c3cnc(N)nc3)nc(N3CCOCC3)nc21` [Cmpd B], the “solubility, assessment in words” value in data set [3] is given as “low solubility”. For the same molecule, the half-life at 5 μM in data set [1] (liver microsomes) was more than 60 min. In data set [2], this molecule registered a solubility of 18 µM (≈ 7.55 µg/mL).

Consider `Cc1nc2c(-c3cnc(N)nc3)nc(N3CCOCC3)nc2n1C(C)C` [Cmpd of the invention, 5-(9-isopropyl-8-methyl-2-morpholin-4-yl-9H-purin-6-yl)-pyrimidin-2-ylamine], for which the “solubility, assessment in words” value (pH 7) was “acceptable”.

Consider `CCc1nc2c(-c3cnc(N)nc3)nc(N3CCOCC3)nc2n1C(C)C` [Cmpd C], for which the “solubility, assessment in words” value (as drug candidate) is listed as “acceptable”. This molecule displayed a half-life in data set [1] of 36 min. Besides, the solubility in data set [2] was more than 250 µM.

Consider `CCC(C)n1c(C)nc2c(-c3cnc(N)nc3)nc(N3CCOCC3)nc21` (stereo not shown) [Cmpd D], for which the “solubility, assessment in words” value (as drug candidate) is “acceptable”. This molecule also gave a half-life in data set [1] of 26 min. In addition, the solubility in data set [2] is more than 250 µM.
